pIC50: −log10 of the molar value.
How the values were obtained:
IRAK4 [1] = biological target: T1, IRAK4 (Homo sapiens (Human), UniProt Q9NWZ3); assay: Immunoblotting, IRAK4 degradation in BCWM.1 cells; assay type: cell-based; details: overnight treatment
Experimental: (§1) The degradation of IRAK1 or IRAK4 proteins in BCWM.1 cells was determined by immunoblotting using BCWM.1 total cell lysates prepared following overnight treatment with IRAK1/4 degraders or inhibitors using anti-IRAK1 and anti-IRAK4 antibodies (Cell Signaling Technologies, Danvers Mass.). Anti-GAPDH antibody (Santa Cruz Biotechnology) was used for determination of protein loading.

IRAK4 [2] = biological target: T1, IRAK4; assay: Z'-LYTE kinase assay, IRAK4; assay type: biochemical; details: Z'-LYTE kinase assay format
Excerpt: (§2) The IRAK1 and IRAK 4 IC50 values for various compounds disclosed herein generated from an Adapta® kinase assay format, and a Z′-LYTE™ kinases assay format, respectively, are shown in Table 1.

IRAK1 [3] = biological target: T2, IRAK1 (Homo sapiens (Human), UniProt P51617); assay: Immunoblotting, IRAK1 degradation in BCWM.1 cells; assay type: cell-based; details: overnight treatment
T2 sequence (P51617 whole entry): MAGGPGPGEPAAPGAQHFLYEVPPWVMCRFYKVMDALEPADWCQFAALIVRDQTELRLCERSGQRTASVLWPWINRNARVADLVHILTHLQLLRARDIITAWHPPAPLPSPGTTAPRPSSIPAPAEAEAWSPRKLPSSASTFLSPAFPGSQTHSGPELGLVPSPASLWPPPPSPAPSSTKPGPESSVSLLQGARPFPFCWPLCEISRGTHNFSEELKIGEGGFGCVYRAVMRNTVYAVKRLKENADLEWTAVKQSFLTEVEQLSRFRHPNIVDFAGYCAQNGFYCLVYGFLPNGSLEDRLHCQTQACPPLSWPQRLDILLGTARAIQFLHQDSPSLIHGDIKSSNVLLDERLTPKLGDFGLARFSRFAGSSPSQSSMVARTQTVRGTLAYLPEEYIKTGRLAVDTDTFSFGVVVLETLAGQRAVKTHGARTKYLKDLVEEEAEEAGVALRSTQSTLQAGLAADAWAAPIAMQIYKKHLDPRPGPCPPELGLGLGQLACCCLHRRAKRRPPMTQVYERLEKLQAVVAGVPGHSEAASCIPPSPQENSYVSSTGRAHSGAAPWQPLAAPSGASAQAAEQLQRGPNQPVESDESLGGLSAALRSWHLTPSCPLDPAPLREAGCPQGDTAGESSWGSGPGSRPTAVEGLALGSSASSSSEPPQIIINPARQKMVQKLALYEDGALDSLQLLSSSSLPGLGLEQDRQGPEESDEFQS
Experimental: as §1

IRAK1 [4] = biological target: T2, IRAK1; assay: Adapta kinase assay, IRAK1; assay type: biochemical; details: Adapta kinase assay format
Excerpt: as §2

[5] = concentrations as high as 10 μM

T1 sequence (Q9NWZ3 whole entry): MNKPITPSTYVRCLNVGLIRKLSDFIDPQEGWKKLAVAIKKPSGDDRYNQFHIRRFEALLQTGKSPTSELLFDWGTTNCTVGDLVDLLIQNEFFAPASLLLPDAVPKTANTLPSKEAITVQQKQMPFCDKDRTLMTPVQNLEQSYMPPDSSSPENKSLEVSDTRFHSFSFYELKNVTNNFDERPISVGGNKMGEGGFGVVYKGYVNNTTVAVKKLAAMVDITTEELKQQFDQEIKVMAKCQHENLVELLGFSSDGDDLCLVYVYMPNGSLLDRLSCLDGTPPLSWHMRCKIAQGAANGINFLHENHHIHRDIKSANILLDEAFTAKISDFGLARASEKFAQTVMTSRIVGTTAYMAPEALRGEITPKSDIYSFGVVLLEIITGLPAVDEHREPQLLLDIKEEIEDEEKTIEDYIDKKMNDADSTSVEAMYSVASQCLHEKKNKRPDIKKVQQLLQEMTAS

Row | Compound | pIC50 (IRAK4 [2]) | pIC50 (IRAK1 [4]) | other results
1 | O=C1CCC(N2C(=O)c3cccc(NCCOCCOCCOCCOCCC(=O)N4CCC(c5cc(NC(=O)c6cccc(-c7ccn[nH]7)n6)n(-c6ccccn6)n5)CC4)c3C2=O)C(=O)N1 (stereo not drawn) [Compound 1, N-(3-(1-(1-((2-(2,6-dioxopiperidin-3-yl)-1,3-dioxoisoindolin-4-yl)amino)-3,6,9,12-tetraoxapentadecan-15-oyl)piperidin-4-yl)-1-(pyridin-2-yl)-1H-pyrazol-5-yl)-6-(1H-pyrazol-5-yl)picolinamide] | 7.80 | 7.37 | degradation of IRAK4 protein (IRAK4 [1]; FIG. 4): degraded; degradation of IRAK1 protein (IRAK1 [3]; FIG. 4): degraded
2 | O=C1CCC(N2C(=O)c3cccc(NCCOCCOCCC(=O)N4CCC(c5cc(NC(=O)c6cccc(-c7ccn[nH]7)n6)n(-c6ccccn6)n5)CC4)c3C2=O)C(=O)N1 (stereo not drawn) [Compound 2] | 7.36 | 7.38 | 
3 | O=C1CCC(N2Cc3c(NCCOCCOCCC(=O)N4CCC(c5cc(NC(=O)c6cccc(-c7ccn[nH]7)n6)n(-c6ccccn6)n5)CC4)cccc3C2=O)C(=O)N1 (stereo not drawn) [Compound 3, N-(3-(1-(3-(2-(2-((2-(2,6-dioxopiperidin-3-yl)-1-oxoisoindolin-4-yl)amino)ethoxy)ethoxy)propanoyl)piperidin-4-yl)-1-(pyridin-2-yl)-1H-pyrazol-5-yl)-6-(1H-pyrazol-5-yl)picolinamide] | 7.74 | 7.40 | 
4 | O=C1CCC(N2C(=O)c3cccc(OCCCCCCCCC(=O)N4CCC(c5cc(NC(=O)c6cccc(-c7ccn[nH]7)n6)n(-c6ccccn6)n5)CC4)c3C2=O)C(=O)N1 (stereo not drawn) [Compound 4, N-(3-(1-(9-((2-(2,6-dioxopiperidin-3-yl)-1,3-dioxoisoindolin-4-yl)oxy)nonanoyl)piperidin-4-yl)-1-(pyridin-2-yl)-1H-pyrazol-5-yl)-6-(1H-pyrazol-5-yl)picolinamide] | 6.85 | 6.67 | 
5 | CN1C(=O)CCC(N2C(=O)c3cccc(NCCOCCOCCOCCOCCC(=O)N4CCC(c5cc(NC(=O)c6cccc(-c7ccn[nH]7)n6)n(-c6ccccn6)n5)CC4)c3C2=O)C1=O (stereo not drawn) [Compound C1] |  |  | degradation of IRAK4 protein (IRAK4 [1]; [5]): no degradation; degradation of IRAK1 protein (IRAK1 [3]; [5]): no degradation
6 | CC(C)N1CCC(c2cc(NC(=O)c3cccc(-c4ccn[nH]4)n3)n(-c3ccccn3)n2)CC1 [TL1, reference compound] | 8.52 | 8.15 | effect on IRAK4 protein levels (IRAK4 [1]; concentration of 10 μM): no effect; effect on IRAK1 protein levels (IRAK1 [3]; concentration of 10 μM): no effect
7 | C=CC(=O)Nc1cccc(C(=O)Nc2ccc(NC(=O)c3cccc(-c4ccn[nH]4)n3)cc2)c1 [TL2, reference compound] | < 5.00 | 8.05 | 

Reference: patent US11542251B2, “IRAK degraders and uses thereof” (DANA-FARBER CANCER INSTITUTE, INC., priority 2018, dated 2023)
